Measurements as given in patent US8435987B2, “Pyrazolo-pyridinone and pyrazolo-pyrazinone compounds as P38 modulators and methods of use thereof” (Amgen Inc., priority 2007, dated 2013).

Key:
recombinant human p38α = recombinant human p38α (Homo sapiens, UniProt Q16539); experiment: Purified and activated recombinant human p38α HTRF assay; format: biochemical; conditions: 1 nM p38α, 50 μM ATP, 100 nM GST-ATF2-Avitag, read-out: p3a IC550
Description: Purified and Activated Recombinant Human p38α Assay
• Kinase Reaction Buffer: Kinase reaction buffer for p38α HTRF assays consists of 50 mM Tris-pH 7.5, 5 mM MgCl2, 0.1 mg/mL BSA, 100 μM Na3VO4 and 0.5 mM DTT. • HTRF Detection Buffer: HTRF detection buffer contains 100 mM HEPES-pH 7.5, 100 mM NaCl, 0.1% BSA, 0.05% Tween-20, and 10 mM EDTA. • Serial Dilution of Compounds: Compounds were dissolved in 100% DMSO and serially diluted (3 fold, 10 point) in a polypropylene 96-well microtiter plate (drug plate). The final starting concentration of compounds in the p38a enzymatic assays was 1 μM. Columns 6 and 12 (HI controls and LO controls respectively) in the drug plate were reserved as controls and contained only DMSO. • Kinase Reaction: The p38α kinase reactions were carried out in a polypropylene 96-well black round bottom assay plate in total volume of 30 μL kinase reaction buffer. Appropriate concentration of purified and activated enzyme (recombinant human) was mixed with indicated concentration of ATP and 100 nM GST-ATF2-Avitag, in the presence or absence (HI control) of Compound. See table below for actual concentrations. In the absence of substrate, the background was measured as LO control. The reaction was allowed to incubate for 1 hour at RT. • Assay Reagent Concentrations: The final reagent concentrations were 1 nM p38α and 50 μM ATP. […] After 60 minutes incubation at room temperature, the assay plate was read in a Discovery Plate Reader. The wells were excited with coherent 320 nm light and the ratio of delayed ([…] post excitation) emissions at […] (native europium fluorescence) and 665 nm (europium fluorescence transferred to allophycocyanin—an index of substrate phosphorylation) was determined (Park et al, 1999). • Data Analysis: The proportion of substrate phosphorylated in the kinase reaction in the presence of compound compared with that phosphorylated in the presence of DMSO vehicle alone (HI control) was calculated using the formula: % control (POC)=(compound−average LO)/(average HI−average LO)*100. Data (consisting of POC and inhibitor concentration in μM) was fitted to a 4-parameter equation (y=A+((B−A)/(1+((x/C)AD))), where A is the minimum y (POC) value, B is the maximum y (POC), C is the x (compound concentration) at the point of inflection and D is the slope factor, using a Levenburg-Marquardt non-linear regression algorithm.
The inhibition constant (Ki) of the inhibitor was estimated from the IC50 (compound concentration at the point of inflection C) using the Cheng-Prussof equation: Ki=IC50/(1+S/Km), where S is the ATP substrate concentration, and Km is the Michaelis constant for ATP as determined experimentally. All results were expressed as the mean± the standard error of the mean. Data acquisition and non-linear regression algorithms were performed using Activity Base v5.2 and XL-fit software v4.1 respectively. All data was archived using Activity Base v5.2 software.

[1] = test system: production of IL-1β, IL-6, and TNF-α by PBMC activated with bacterial lipopolysaccharide (LPS); experiment: Lipopolysaccharide-activated PBMC cytokine production assay; format: cell-based; conditions: LPS 100 ng/mL, 18 hours
Description: Lipopolysaccharide-Activated PBMC Cytokine Production Assay
Test compounds were evaluated in vitro for the ability to inhibit the production of IL-1β, IL-6, and TNF-α by PBMC activated with bacterial lipopolysaccharide (LPS). Fresh leukocytes were obtained from a local blood bank, and peripheral blood mononuclear cells (PBMCs) were isolated by density gradient centrifugation on Ficol-Paque Plus (Pharmacia).
Preparation of Test Compound Stock Solutions
All reagents were prepared in RPMI 1640+10% v/v human AB serum+1×Pens/Strep/Glu (assay medium). Test compounds were dissolved in 100% DMSO and serially diluted in 96-well polypropylene round bottom micro titer plates (drug plate). Serial dilutions were then diluted 1:250 into assay medium to a 4× working concentration. […]
LPS was prepared to a 4× concentration in assay medium. […] After 18 hours culture supernatants were removed and IL-1β, IL-6, and TNF-α presence in the supernatants was quantified using MSD ECL based technology.
20 μL of culture supernatant were added to MSD plates, and incubated for one hour at room temperature. 20 μL of detection antibody diluted in antibody diluent (1 μg/mL), and 110 μL of 2× Read Buffer P was added, and incubated for one hour at RT. Electrochemiluminescence was measured using the SECTOR HTS Imager (MSD, Gaithersburg, Md.). […]

Chain of recombinant human p38α (Q16539 whole entry): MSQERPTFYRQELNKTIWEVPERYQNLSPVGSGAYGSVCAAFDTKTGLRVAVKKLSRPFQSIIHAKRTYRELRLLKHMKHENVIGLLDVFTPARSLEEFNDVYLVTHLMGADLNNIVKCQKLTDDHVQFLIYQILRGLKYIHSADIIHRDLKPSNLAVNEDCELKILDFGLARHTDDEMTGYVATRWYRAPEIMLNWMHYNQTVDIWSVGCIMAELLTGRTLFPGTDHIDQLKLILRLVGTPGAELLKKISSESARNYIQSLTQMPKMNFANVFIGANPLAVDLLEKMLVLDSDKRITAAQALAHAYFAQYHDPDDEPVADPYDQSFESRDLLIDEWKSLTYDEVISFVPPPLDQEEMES

Structure (SMILES)	IC50 (recombinant human p38α)	IC50 [1]
CNc1noc2c(-c3cc4cnn(-c5c(F)cccc5F)c4n(C)c3=O)c(C)ccc12 [Example 5, 1-(2,6-difluorophenyl)-7-methyl-5-(6-methyl-3-(methylamino)-1,2-benzisoxazol-7-yl)-1,7-dihydro-6H-pyrazolo[3,4-b]pyridin-6-one]	6.7 nM	≤ 100 nM
Cc1ccc2c(NC3CC3)noc2c1-c1cc2cnn(-c3c(F)cccc3F)c2n(C)c1=O [Example 1, 5-(3-(cyclopropylamino)-6-methylbenzo[d]isoxazol-7-yl)-1-(2,6-difluorophenyl)-7-methyl-1H-pyrazolo[3,4-b]pyridin-6(7H)-one]	8.1 nM	≤ 100 nM
